# pIC50, pKi: −log10 of the molar value.
# Columns and labels:
# [1] = target: Sodium-dependent noradrenaline transporter (Homo sapiens, UniProt P23975); experiment: DRUGMATRIX: Norepinephrine Transporter radioligand binding (ligand: [125I] RTI-55); assay type: cell membranes, MDCK, Membrane; conditions: Not Active = under 50% inhibition at 10 µM; for IC50: mdck
# D(4) dopamine receptor = target: T1, D(4) dopamine receptor (Homo sapiens, UniProt P21917); experiment: DRUGMATRIX: Dopamine D4.2 radioligand binding (ligand: [3H] Spiperone); assay type: cell membranes, CHO-K1, Membrane; conditions: cho-k1; Not Active = under 50% inhibition at 10 µM
# T1 sequence (P21917 whole entry): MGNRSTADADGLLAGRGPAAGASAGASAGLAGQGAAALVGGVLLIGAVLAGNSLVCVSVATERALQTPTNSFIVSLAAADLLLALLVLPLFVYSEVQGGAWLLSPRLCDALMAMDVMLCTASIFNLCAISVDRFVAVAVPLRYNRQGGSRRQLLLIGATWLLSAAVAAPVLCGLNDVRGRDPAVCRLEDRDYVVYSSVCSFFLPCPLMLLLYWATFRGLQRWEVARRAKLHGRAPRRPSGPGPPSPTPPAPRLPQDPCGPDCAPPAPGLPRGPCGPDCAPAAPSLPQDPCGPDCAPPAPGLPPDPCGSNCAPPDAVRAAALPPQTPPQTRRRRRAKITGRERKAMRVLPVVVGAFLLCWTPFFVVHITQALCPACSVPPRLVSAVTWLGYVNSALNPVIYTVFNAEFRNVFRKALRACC
# Melanocortin receptor 3 = Melanocortin receptor 3 (Homo sapiens, UniProt P41968); assay type: cell membranes, HEK293, Membrane; conditions: hek293; further: in other assays of this panel Not Active means under 50% inhibition at 10 µM
# [2] = target: T2, Nitric oxide synthase, inducible (Mus musculus, UniProt P29477); set-up: species or system Escherichia coli;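 further: inhibition of iNOS enzyme activity measured with L-arginine as substrate; in other assays of this panel Not Active means under 50% inhibition at 10 µM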
# T2 sequence (P29477 whole entry): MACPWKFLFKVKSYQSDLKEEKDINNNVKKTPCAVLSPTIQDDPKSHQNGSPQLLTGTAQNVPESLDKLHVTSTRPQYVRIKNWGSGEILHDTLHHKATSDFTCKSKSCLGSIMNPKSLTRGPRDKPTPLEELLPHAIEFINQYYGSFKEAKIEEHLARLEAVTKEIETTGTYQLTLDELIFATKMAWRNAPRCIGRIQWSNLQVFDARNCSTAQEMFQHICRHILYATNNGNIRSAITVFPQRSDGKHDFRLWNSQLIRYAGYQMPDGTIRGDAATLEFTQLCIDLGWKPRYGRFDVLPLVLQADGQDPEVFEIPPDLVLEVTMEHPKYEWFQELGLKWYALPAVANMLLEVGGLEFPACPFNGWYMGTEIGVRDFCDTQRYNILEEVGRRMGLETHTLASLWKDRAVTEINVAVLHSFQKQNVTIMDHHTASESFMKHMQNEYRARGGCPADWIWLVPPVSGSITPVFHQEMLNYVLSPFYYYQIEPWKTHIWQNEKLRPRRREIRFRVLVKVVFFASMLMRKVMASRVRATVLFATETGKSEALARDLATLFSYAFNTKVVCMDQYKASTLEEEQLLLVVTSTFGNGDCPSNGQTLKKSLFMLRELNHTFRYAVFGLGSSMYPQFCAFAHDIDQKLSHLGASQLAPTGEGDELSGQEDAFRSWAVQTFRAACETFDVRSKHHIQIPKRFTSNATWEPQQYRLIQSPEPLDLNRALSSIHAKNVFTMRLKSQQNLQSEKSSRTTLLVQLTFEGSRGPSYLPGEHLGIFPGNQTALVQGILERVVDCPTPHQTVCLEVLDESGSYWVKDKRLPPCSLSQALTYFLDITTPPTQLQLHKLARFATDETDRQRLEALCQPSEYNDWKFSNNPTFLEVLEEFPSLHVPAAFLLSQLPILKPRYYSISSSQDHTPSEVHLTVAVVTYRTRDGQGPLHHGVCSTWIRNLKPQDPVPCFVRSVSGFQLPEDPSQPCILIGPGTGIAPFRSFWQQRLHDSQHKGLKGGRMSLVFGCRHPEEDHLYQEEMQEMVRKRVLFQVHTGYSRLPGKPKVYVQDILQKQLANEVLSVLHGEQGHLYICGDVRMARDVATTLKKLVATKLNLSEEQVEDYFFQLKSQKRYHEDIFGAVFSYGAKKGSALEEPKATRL
# Caspase-1 = target: T3, Caspase-1 (Homo sapiens, UniProt P29466); set-up: species or system Escherichia coli;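 further: Caspase-1 enzyme inhibition assay with a peptide substrate; in other assays of this panel Not Active means under 50% inhibition at 10 µM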
# T3 sequence (P29466 whole entry): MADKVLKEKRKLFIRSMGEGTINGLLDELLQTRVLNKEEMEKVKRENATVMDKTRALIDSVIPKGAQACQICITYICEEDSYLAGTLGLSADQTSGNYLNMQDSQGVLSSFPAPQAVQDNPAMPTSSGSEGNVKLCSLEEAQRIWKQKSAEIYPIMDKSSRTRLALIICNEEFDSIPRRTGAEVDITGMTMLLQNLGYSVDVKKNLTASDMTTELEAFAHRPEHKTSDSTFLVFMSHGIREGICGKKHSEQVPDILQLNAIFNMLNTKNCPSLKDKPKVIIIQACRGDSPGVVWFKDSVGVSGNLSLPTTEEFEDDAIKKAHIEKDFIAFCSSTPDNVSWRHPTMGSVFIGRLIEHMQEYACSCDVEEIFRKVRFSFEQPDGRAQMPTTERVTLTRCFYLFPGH
# Adenosine receptor A3 = target: T4, Adenosine receptor A3 (Homo sapiens, UniProt P0DMS8); assay type: cell membranes, CHO-K1, Membrane; conditions: for IC50: cho-k1;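 on all read-outs here: radioligand binding assay with AB-MECA serving as the labeled ligand; in other assays of this panel Not Active means under 50% inhibition at 10 µM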
# T4 sequence (P0DMS8 whole entry): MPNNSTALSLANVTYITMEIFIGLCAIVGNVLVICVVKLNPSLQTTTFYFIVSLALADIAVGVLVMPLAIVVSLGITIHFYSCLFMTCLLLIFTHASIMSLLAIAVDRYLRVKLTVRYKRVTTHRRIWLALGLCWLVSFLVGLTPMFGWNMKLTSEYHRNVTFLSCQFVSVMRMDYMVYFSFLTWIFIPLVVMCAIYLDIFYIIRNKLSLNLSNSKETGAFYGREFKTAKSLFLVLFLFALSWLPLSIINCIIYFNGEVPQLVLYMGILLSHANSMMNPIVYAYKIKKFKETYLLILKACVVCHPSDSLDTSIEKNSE
# Cytochrome P450 2C9 = Cytochrome P450 2C9 (Homo sapiens, UniProt P11712); conditions: bti-tn-5b1-4; further: in other assays of this panel Not Active means under 50% inhibition at 10 µM
# [3] = target: Voltage-gated inwardly rectifying potassium channel KCNH2 (Homo sapiens, UniProt Q12809); conditions: hek293; further: in other assays of this panel Not Active means under 50% inhibition at 10 µM
# Chain of Voltage-gated inwardly rectifying potassium channel KCNH2 (Q12809 whole entry): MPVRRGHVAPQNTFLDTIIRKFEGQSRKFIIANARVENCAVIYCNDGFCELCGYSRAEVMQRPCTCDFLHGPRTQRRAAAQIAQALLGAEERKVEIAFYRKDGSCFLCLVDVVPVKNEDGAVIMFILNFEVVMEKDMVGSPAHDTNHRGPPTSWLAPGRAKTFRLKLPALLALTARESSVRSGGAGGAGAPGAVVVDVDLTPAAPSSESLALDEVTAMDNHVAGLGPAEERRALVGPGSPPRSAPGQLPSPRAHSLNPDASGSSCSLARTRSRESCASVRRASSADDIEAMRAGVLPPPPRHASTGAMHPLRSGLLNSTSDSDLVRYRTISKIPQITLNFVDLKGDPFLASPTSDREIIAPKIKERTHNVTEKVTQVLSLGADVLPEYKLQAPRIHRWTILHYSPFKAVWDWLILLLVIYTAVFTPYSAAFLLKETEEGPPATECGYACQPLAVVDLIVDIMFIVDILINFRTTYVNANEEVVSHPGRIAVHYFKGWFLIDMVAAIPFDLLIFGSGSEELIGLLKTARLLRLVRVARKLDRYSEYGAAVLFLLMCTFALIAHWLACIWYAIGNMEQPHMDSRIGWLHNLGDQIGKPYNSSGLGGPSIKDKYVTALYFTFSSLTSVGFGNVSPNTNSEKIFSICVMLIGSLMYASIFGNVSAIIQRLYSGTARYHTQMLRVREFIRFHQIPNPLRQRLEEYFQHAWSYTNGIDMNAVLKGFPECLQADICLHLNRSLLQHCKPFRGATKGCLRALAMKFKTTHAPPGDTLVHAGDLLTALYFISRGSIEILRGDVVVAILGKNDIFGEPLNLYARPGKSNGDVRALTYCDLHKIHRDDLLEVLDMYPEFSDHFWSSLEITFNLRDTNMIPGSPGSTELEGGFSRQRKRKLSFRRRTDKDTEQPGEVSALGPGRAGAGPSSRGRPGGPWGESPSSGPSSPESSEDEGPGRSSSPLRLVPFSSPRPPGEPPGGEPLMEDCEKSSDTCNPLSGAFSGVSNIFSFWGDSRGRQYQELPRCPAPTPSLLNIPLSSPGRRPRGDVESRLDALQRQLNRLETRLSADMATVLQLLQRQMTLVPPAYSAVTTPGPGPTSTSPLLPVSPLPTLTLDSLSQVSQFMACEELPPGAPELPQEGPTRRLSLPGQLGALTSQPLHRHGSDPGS
# Chain of Cytochrome P450 2C9 (P11712 whole entry): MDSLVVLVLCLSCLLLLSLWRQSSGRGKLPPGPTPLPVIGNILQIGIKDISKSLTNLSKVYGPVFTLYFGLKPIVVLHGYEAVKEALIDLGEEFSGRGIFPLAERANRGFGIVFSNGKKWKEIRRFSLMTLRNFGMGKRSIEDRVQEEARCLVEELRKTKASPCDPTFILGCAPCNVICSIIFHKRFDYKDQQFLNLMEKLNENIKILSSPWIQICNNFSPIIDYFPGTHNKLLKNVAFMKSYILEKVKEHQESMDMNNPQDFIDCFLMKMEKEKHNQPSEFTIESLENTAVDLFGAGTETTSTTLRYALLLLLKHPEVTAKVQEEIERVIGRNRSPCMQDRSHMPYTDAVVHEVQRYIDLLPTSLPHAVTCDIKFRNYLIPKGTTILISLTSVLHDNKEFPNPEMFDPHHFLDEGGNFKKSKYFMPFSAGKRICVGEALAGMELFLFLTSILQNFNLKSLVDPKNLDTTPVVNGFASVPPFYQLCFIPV
# Chain of Sodium-dependent noradrenaline transporter (P23975 whole entry): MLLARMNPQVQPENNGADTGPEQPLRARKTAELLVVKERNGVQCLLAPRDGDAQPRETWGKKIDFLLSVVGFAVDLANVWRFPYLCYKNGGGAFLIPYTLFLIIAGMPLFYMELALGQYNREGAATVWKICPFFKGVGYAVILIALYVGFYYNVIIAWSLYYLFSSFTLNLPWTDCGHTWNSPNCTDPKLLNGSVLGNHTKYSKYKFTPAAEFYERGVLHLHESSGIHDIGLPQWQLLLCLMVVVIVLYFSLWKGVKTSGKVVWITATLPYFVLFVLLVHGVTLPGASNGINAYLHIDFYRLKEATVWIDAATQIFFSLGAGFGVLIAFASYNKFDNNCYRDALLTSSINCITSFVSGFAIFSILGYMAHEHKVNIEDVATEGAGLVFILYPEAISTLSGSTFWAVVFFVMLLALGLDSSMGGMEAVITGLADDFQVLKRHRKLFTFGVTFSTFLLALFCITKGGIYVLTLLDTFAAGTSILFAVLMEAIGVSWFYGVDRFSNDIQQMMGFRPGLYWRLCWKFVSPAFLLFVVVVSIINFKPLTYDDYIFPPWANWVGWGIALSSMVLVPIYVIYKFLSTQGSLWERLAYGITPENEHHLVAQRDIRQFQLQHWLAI
# Chain of Melanocortin receptor 3 (P41968 whole entry): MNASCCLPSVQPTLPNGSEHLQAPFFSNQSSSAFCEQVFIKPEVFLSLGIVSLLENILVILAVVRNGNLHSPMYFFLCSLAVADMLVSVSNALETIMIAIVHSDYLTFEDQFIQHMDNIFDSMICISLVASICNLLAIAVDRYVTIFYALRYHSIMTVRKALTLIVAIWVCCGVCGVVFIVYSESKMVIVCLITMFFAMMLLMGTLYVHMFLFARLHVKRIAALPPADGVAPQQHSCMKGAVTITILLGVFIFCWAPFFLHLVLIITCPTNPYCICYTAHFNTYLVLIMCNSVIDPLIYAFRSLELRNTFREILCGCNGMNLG
SMILES,IC50 [1],IC50 (D(4) dopamine receptor),IC50 (Melanocortin receptor 3),IC50 [2],IC50 (Caspase-1),IC50 (Adenosine receptor A3),IC50 (Cytochrome P450 2C9),Ki (Cytochrome P450 2C9),IC50 [3],Ki [3],pIC50 ([1]; read-out: IC50),pKi ([1]; read-out: Ki),pIC50 (Adenosine receptor A3; read-out: IC50),pKi (Adenosine receptor A3; read-out: Ki)
CC(C)(C#N)c1cc(Cn2cncn2)cc(C(C)(C)C#N)c1 [ANASTROZOLE],Not Active,Not Active,Not Active,Not Active,Not Active,Not Active,Not Active,Not Active,Not Active,Not Active,,,,
CC12CCC(CC1=O)C2(C)C (configuration not stated) [CAMPHOR],Not Active,Not Active,Not Active,Not Active,Not Active,Not Active,Not Active,Not Active,Not Active,Not Active,,,,
CC12CCC(CC1)C(C)(C)O2 [EUCALYPTOL],Not Active,Not Active,Not Active,Not Active,Not Active,Not Active,Not Active,Not Active,Not Active,Not Active,,,,
Cc1ccnc2c1NC(=O)c1cccnc1N2C1CC1 [NEVIRAPINE],Not Active,Not Active,Not Active,Not Active,Not Active,Not Active,Not Active,Not Active,Not Active,Not Active,,,,
Clc1cc(Cl)c(OCC#CI)cc1Cl [HALOPROGIN],,Not Active,Not Active,Not Active,Not Active,,Not Active,Not Active,Not Active,Not Active,5.56,5.56,6.65,6.90
CC[C@H]1OC(=O)[C@H](C)[C@@H](O[C@H]2C[C@@](C)(OC)[C@@H](O)[C@H](C)O2)[C@H](C)[C@@H](O[C@@H]2O[C@H](C)C[C@H](N(C)C)[C@H]2O)[C@](C)(O)C[C@@H](C)C(=O)[C@H](C)[C@@H](O)[C@]1(C)O [ERYTHROMYCIN],Not Active,Not Active,Not Active,Not Active,Not Active,Not Active,,,,,,,,
C#C[C@]1(O)CC[C@H]2[C@@H]3CCC4=CC(=O)CC[C@@H]4[C@H]3CC[C@@]21C [NORETHINDRONE],Not Active,Not Active,Not Active,Not Active,Not Active,Not Active,,,Not Active,Not Active,,,,
CCN1C[C@]2(COC)[C@H](O)C[C@H](OC)[C@@]34[C@@H]5C[C@@]6(O)[C@H](OC(=O)c7ccccc7)[C@@H]5[C@@](OC(C)=O)([C@@H]([C@H](OC)[C@H]23)[C@@H]14)[C@@H](O)[C@@H]6OC [ACONITINE],Not Active,Not Active,Not Active,Not Active,Not Active,Not Active,Not Active,Not Active,,,,,,
COc1cc([C@@H]2c3cc4c(cc3[C@H](O)[C@H]3COC(=O)[C@H]23)OCO4)cc(OC)c1OC [PODOFILOX],Not Active,Not Active,Not Active,Not Active,Not Active,Not Active,,,Not Active,Not Active,,,,

# From ChEMBL document CHEMBL1909046, “DrugMatrix in vitro pharmacology data”
